# Measurements taken from patent US9546129B2, “DTPA prodrugs, compositions thereof, and methods of using the same” (priority 2012, dated 2017).
# Tests used:
# [1] = Body weights and clinical observations in the rat single dose decorporation study; format: in vivo, Sprague Dawley rat; conditions: for Mean body weight: in g (unit assumed)
# From the text: Each rat was weighed at contamination (Day 0) and the terminal body weight (Day 7) was taken at necropsy.
# [2] = Stability of C2E2 in plasma (rat); format: in vitro ADME; conditions: 37° C., up to two hours
# Description: (§1) Prior to the study, 975 μL of plasma (Rat, Beagle and Human) was preheated to 37° C. in Eppendorff tubes and the test compound (C2E2) was prepared in DI water (10 mg/mL). The C2E2 was from Lot 050 obtained using Method 2. To initiate the study, 25 μL of the C2E2 solution was added to the pre-heated plasma and briefly vortexed, to mix. At 0, 15, 30, 60 and 120 minutes a 100 μL sample of plasma was taken, an equal volume of cold acetonitrile was added and mixed to precipitate plasma proteins. Samples were centrifuged at 4° C. and 14,000×g for 10 minutes to remove precipitated proteins, the supernatant was collected and the C2E2 concentration determined by HPLC-CAD. All conditions were repeated in triplicate.
# (§2) HPLC Detection Methods: C2E2 analysis was performed on a prominence HPLC (Shimadzu Corporation, Kyoto, Japan) equipped with a Corona Ultra charged […] detector (CAD) (Thermo scientific, Sunnyvale, Calif.). […]
# (§3) The gradient is 0.01-34.99 min: 22% B; 35.00-44.99 min: 33% B; 45.00-60.00 min: 38% B. The flow rate is 1.0 mL/min, a Thermo Hypersil ODS column (150 mm 4.6 mm i.d. with 5.0 μm particles) will be used, injection volume will be 10 μL and column oven temperature maintained at 25° C. […] The limit of quantification is 0.35 μg/mL. […]
# [3] = Stability of C2E2 in plasma (Beagle); format: in vitro ADME, dog; conditions: 37° C., up to two hours
# Description: as §1, §2, §3
# [4] = Stability of C2E2 in plasma (human); format: in vitro ADME; conditions: 37° C.
# Description: as §1, §2, §3
# [5] = test system: Salmonella typhimurium tester strains TA98, TA100, TA1535, and TA1537; assay: Bacterial Reverse Mutation Assay (Salmonella); format: cell-based
# Description: (§4) The objective of this study was to evaluate C2E2 for its ability to induce reverse mutations at the histidine locus in Salmonella typhimurium tester strains TA98, TA100, TA1535, and TA1537, and at the tryptophan locus of Escherichia coli (E. coli) strain WP2uvrA in the presence or absence of an exogenous mammalian metabolic activation system (S9).
# (§5) C2E2 was evaluated in an initial mutagenicity assay in all five tester strains at dose levels of 5.00, 16.0, 50.0, 160, 500, 1600, and 5000 μg/plate with and without S9. C2E2 was from Lot 050 obtained using Method 2. C2E2 was prepared in Cell Culture Grade Water vehicle and formed a transparent colorless solution. […] The reductions in the numbers of revertant colonies and the enhanced background lawn growth are indicative of C2E2 treatment-related toxicity. With exception to the enhanced background lawn in TA1537 without S9, all other background lawns in all strains, with and without S9, were normal indicating there was appropriate bacterial growth during treatment to express a mutagenic event. There were no relevant increases in the numbers of revertant colonies observed at any dose level with any strain in the absence or presence of S9 metabolic activation.
# [6] = test system: Escherichia coli (E. coli) strain WP2uvrA; assay: Bacterial Reverse Mutation Assay (E. coli); format: cell-based; conditions: for Dose level with reductions in mean numbers of revertant colonies (toxicity): WP2uvrA
# Description: as §4, §5
# [7] = up to 5000 μg/plate, with and without S9
compound,measurement,setting,value
"CCOC(=O)CN(CCN(CCN(CC(=O)O)CC(=O)OCC)CC(=O)O)CC(=O)O [C2E2, 6,9-bis(carboxymethyl)-3-(2-ethoxy-2-oxoethyl)-11-oxo-12-oxa-3,6,9-triazatetradecan-1-oic acid]",Mean Percentage Body Weight Change,"[1]; Female, C2E2 200 mg/kg, Fasted",0.8 ± 2.2%
same,Mean Percentage Body Weight Change,"[1]; Female, C2E2 200 mg/kg, ad libitum",0.0 ± 2.5%
same,Mean Percentage Body Weight Change,"[1]; Female, C2E2 600 mg/kg, Fasted",−2.3 ± 3.3%
same,Mean Percentage Body Weight Change,"[1]; Female, C2E2 600 mg/kg, ad libitum",1.1 ± 1.2%
same,Mean Percentage Body Weight Change,"[1]; Female, C2E2 1000 mg/kg, Fasted",−5.0 ± 2.9%
same,Mean Percentage Body Weight Change,"[1]; Female, C2E2 1000 mg/kg, ad libitum",0.7 ± 2.1%
same,Mean Percentage Body Weight Change,"[1]; Male, C2E2 200 mg/kg, Fasted",8.1 ± 8.4%
same,Mean Percentage Body Weight Change,"[1]; Male, C2E2 200 mg/kg, ad libitum",10.4 ± 11.0%
same,Mean Percentage Body Weight Change,"[1]; Male, C2E2 600 mg/kg, Fasted",12.6 ± 3.1%
same,Mean Percentage Body Weight Change,"[1]; Male, C2E2 600 mg/kg, ad libitum",10.1 ± 3.1%
same,Mean Percentage Body Weight Change,"[1]; Male, C2E2 1000 mg/kg, Fasted",12.0 ± 4.8%
same,Mean Percentage Body Weight Change,"[1]; Male, C2E2 1000 mg/kg, ad libitum",10.6 ± 0.8%
same,Mean body weight,"[1]; female rats, C2E2 200 mg/kg, Fasted, Day 0",245.0 ± 11.6
same,Mean body weight,"[1]; female rats, C2E2 200 mg/kg, Fasted, Day 7 (terminal)",246.8 ± 9.6
same,Mean body weight,"[1]; female rats, C2E2 200 mg/kg, ad libitum, Day 0",276.8 ± 17.3
same,Mean body weight,"[1]; female rats, C2E2 200 mg/kg, ad libitum, Day 7 (terminal)",276.5 ± 15.1
same,Mean body weight,"[1]; female rats, C2E2 600 mg/kg, Fasted, Day 0",280.5 ± 28.0
same,Mean body weight,"[1]; female rats, C2E2 600 mg/kg, Fasted, Day 7 (terminal)",273.5 ± 19.2
same,Mean body weight,"[1]; female rats, C2E2 600 mg/kg, ad libitum, Day 0",247.0 ± 13.8
same,Mean body weight,"[1]; female rats, C2E2 600 mg/kg, ad libitum, Day 7 (terminal)",249.7 ± 14.5
same,Mean body weight,"[1]; female rats, C2E2 1000 mg/kg, Fasted, Day 0",276.3 ± 17.9
same,Mean body weight,"[1]; female rats, C2E2 1000 mg/kg, Fasted, Day 7 (terminal)",262.7 ± 23.8
same,Mean body weight,"[1]; female rats, C2E2 1000 mg/kg, ad libitum, Day 0",232.5 ± 19.3
same,Mean body weight,"[1]; female rats, C2E2 1000 mg/kg, ad libitum, Day 7 (terminal)",234.2 ± 21.4
same,Clinical observations,"[1]; male and female rats, 200, 600, 1000 mg/kg single oral dose, 7 days",No adverse C2E2 exposure-related clinical observations
same,Mean body weight,"[1]; male rats, C2E2 200 mg/kg, Fasted, Day 0",291.3 ± 12.7
same,Mean body weight,"[1]; male rats, C2E2 200 mg/kg, Fasted, Day 7 (terminal)",314.2 ± 14.4
same,Mean body weight,"[1]; male rats, C2E2 200 mg/kg, ad libitum, Day 0",296.3 ± 9.4
same,Mean body weight,"[1]; male rats, C2E2 200 mg/kg, ad libitum, Day 7 (terminal)",326.5 ± 25.7
same,Mean body weight,"[1]; male rats, C2E2 600 mg/kg, Fasted, Day 0",275.9 ± 9.7
same,Mean body weight,"[1]; male rats, C2E2 600 mg/kg, Fasted, Day 7 (terminal)",310.6 ± 9.1
same,Mean body weight,"[1]; male rats, C2E2 600 mg/kg, ad libitum, Day 0",292.8 ± 5.1
same,Mean body weight,"[1]; male rats, C2E2 600 mg/kg, ad libitum, Day 7 (terminal)",322.2 ± 6.4
same,Mean body weight,"[1]; male rats, C2E2 1000 mg/kg, Fasted, Day 0",270.3 ± 5.8
same,Mean body weight,"[1]; male rats, C2E2 1000 mg/kg, Fasted, Day 7 (terminal)",302.8 ± 14.2
same,Mean body weight,"[1]; male rats, C2E2 1000 mg/kg, ad libitum, Day 0",290.5 ± 6.6
same,Mean body weight,"[1]; male rats, C2E2 1000 mg/kg, ad libitum, Day 7 (terminal)",321.2 ± 6.5
same,Metabolism in plasma (observation),[2],minimal or not detected
same,Metabolism in plasma (observation),[3],minimal or not detected
same,C2E2 remaining,[4]; after 2 hours,approximately 90%
same,Metabolism in plasma (observation),[4]; up to two hours,minimal or not detected
same,Dose level with reductions in mean numbers of revertant colonies (toxicity),"[5]; TA100, TA1535, TA1537, without S9",5000 μg/plate
same,Dose level with reductions in mean numbers of revertant colonies (toxicity),"[5]; TA1535, TA1537, with S9",≥ 500 μg/plate
same,Mutagenicity (reverse mutations at the histidine locus),[5]; [7],negative
same,Dose level with reductions in mean numbers of revertant colonies (toxicity),[6]; with S9,≥ 500 μg/plate
same,Dose level with reductions in mean numbers of revertant colonies (toxicity),[6]; without S9,5000 μg/plate
same,Mutagenicity (reverse mutations at the tryptophan locus),[6]; [7],negative
